According to US20230058634A1, “PREVENTION OF PLATELET ACTIVATION AND CELL DIFFERENTIATION DURING THE PROCESSING OF BLOOD AND BLOOD-RELATED COMPOSITIONS” (GPB Scientific, Inc., priority 2020, published 2023):

Key:
cell aggregates = experiment: Cell aggregates in apheresis product after 24 h, glass slide under microscope; assay type: cell-based; details: FIG. 10, 14 mM Citrate, GSK484 10 micromolar, DTPA 10 micromolar, Tirofiban 2.5 micrograms/ml
Experimental: FIG. 9: An apheresis product is collected in 14 mM Citrate and divided into two different tubes—one with no further addition and a second tube with additional citrate for a final concentration of 28 mM (2X ACD-A). The tubes are left overnight at room temperature under rotation. After 24 h, aliquots of the tubes are spotted on a glass slide and are analyzed under the microscope for the presence of cell aggregates.
FIG. 10: An apheresis product is collected in 14 mM Citrate (ACD-A) and aliquots are taken and incubated with the different inhibitors, or in combination, in different tubes for 24 h. The tubes are left under rotation at room temperature. After 24 h, aliquots of the different tubes are spotted on a glass slide and are analyzed under a microscope for the presence of cell aggregates.

cultured cells = details: at micromolar concentrations; cited from earlier work
neutrophils = details: cited from earlier work
CD45+ cell population = experiment: Singlets and aggregates in apheresis product by flow cytometry (side and forward scatter); assay type: cell-based; details: FIG. 7 top panel; 14 mM Citrate (ACD-A), overnight, low/medium/high concentrations, compared to control with no inhibitors
granulocytes = details: incubation; cited from earlier work
CD45+ cells = experiment: Cell viability in apheresis product by flow cytometry (CD45-PerCP and 7-AAD; % CD45+ cells); assay type: cell-based; details: FIG. 7 lower panel; 14 mM Citrate, overnight; A23187 at 4 micromolar in DMEM media
Experimental: Cell viability may be determined by flow cytometry using CD45-PerCP and 7-AAD.
FIG. 7: An apheresis product is collected into 14 mM Citrate (ACD-A). […] The calcium ionophore A23187 is used at 4 micromolar in apheresis material resuspended in DMEM media. […] Determination of singlets and aggregates may be done by flow cytometry using side and forward scatter of the CD45+ cell population. Cell viability is determined as the % CD45+ cells.

CCCCS(=O)(=O)N[C@@H](Cc1ccc(OCCCCC2CCNCC2)cc1)C(=O)O [Tirofiban, tirofiban]
formation of cell aggregates (cell aggregates): prevents the formation of cell aggregates

c1ccc(CN(CCN(Cc2ccccn2)Cc2ccccn2)Cc2ccccn2)nc1 [TPEN, N,N,N′, N′-tetrakis(2-pyridylmethyl)ethylenediamine]
apoptosis and cell death (cultured cells): induce apoptosis and cell death

CCCCC(CC)CNC(=N)NC(=N)NCCCCCCNC(=N)NC(=N)NCC(CC)CCCC (stereo not drawn) [Alexidine]
NETosis after 2 h of incubation (neutrophils; after 2 h of incubation): induces NETosis
NET formation induced by ionomycin (neutrophils; in neutrophils): inhibits NET formation
basal level of netosis (neutrophils; without an increase of cytosolic calcium): inhibits the basal level of netosis

COc1cc(C(=O)N2CC[C@@H](O)[C@@H](N)C2)cc2nc(-c3cc4ccccc4n3CC3CC3)n(C)c12 [GSK484]
aggregation (singlets %) (CD45+ cell population): inhibit aggregation in a dose dependent manner

C[C@@H](N)[C@H]1CC[C@H](C(=O)Nc2ccncc2)CC1 [Y-27632]
chemotaxis of granulocytes (granulocytes): blocked the chemotaxis
NET formation induced by PMA and other challenges (neutrophils; pre-treatment): inhibits NET formation

S=C=Nc1cccc(NC(=S)NCCCCNC(=S)Nc2cccc(N=C=S)c2)c1 [MRS2578]
aggregation (singlets %) (CD45+ cell population): inhibit aggregation in a dose dependent manner

O=C(O)CN(CCN(CC(=O)O)CC(=O)O)CCN(CC(=O)O)CC(=O)O [DTPA, diethylenetriaminepentacetic acid]
apoptosis and cell death (cultured cells): induce apoptosis and cell death
aggregation (singlets %) (CD45+ cell population): very effective at all concentrations tested

CNc1ccc2oc(C[C@H]3O[C@@]4(CC[C@H]3C)O[C@H]([C@H](C)C(=O)c3ccc[nH]3)[C@H](C)C[C@H]4C)nc2c1C(=O)O [A23187]
viability (% CD45+ cells) (CD45+ cells): affect viability
